# Measured values as given in patent US10501452B2, “Lactam compound derivative and application thereof” (NHWA PHARMA. CORPORATION, priority 2015, dated 2019).
# Read-outs that look alike come from different tables or passages of the source.
# Key:
# 5-HT1A = 5-HT1A (Rattus norvegicus (Rat), UniProt P19327); assay: 5-HT1A receptor binding assay (3H-8-OH-DPAT); conditions: rat cortex membrane, 3H-8-OH-DPAT
# Procedure: Rats were decapitated. […] Incubation at 37° C. was conducted for 10 min. […] Centrifugation was conducted and repeated 3 times.
# (§1) Materials for the Receptor Binding Assay
# D2 = D2 (Rattus norvegicus (Rat), UniProt P61169); assay: D2 receptor binding assay (3H-Spiperone)
# Sequence of D2 (P61169 whole entry): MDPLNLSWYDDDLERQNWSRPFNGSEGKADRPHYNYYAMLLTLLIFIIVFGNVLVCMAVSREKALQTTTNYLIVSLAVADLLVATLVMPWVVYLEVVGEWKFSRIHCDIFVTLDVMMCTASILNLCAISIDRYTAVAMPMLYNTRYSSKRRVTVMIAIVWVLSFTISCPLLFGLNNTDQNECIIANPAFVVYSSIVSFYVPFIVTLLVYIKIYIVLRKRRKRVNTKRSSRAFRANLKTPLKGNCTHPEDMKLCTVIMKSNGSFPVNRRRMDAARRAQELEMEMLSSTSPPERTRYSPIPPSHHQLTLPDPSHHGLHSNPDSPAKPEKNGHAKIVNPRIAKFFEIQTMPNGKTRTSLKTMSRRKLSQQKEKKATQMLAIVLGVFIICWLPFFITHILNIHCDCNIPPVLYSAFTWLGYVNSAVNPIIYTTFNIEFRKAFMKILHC
# Procedure: Rats were decapitated. Striatum of brain was rapidly taken on ice, 3 ml of buffer (0.05 M Tris-HCl buffer, containing NaCl 120 mM, KCl 5 mM, MgCl2 1 mM, CaCl2 1 mM) was added, homogenization was conducted, and then 5 ml of buffer was then added. The weight of the homogenized tubes were adjusted using a balance, and centrifugation was conducted. The supernatant was discarded, and 3 ml of buffer was added. Vortex mixer was used for blending, and then 5 ml of buffer was added. Centrifugation was conducted and repeated 3 times. The supernatant was discarded after centrifugation was completed, and the pellets were stored at −80° C. for future use.
# Beckman LS-6500 Multi-function Liquid Scintillation Counter was used.
# (1) The prepared membrane was applied with appropriate amount of buffer, and homogenizer was used for evenly dispersing. 15 tubes were mixed into a 100 ml container, and appropriate amount of buffer was added to give 50 ml of membrane suspension, which was reserved for future use.
# (§2) (2) 100 μL of membrane preparation and 100 μL of buffer were added into each reaction tube.
# (3) 100 μL of buffer was added into the total binding tube (TB), 100 μL of Butaclamol (final concentration 10^−5M) was added into the nonspecific binding tube (NB), 100 μL of the test compound (final concentration 10^−5M) was added into the specific binding tube (SB) of each test compound.
# (5) Each of the reaction tubes was incubated at 37° C. for 20 min. After the reaction was completed, the bound ligands were rapidly filtered under reduced pressure, and sufficiently washed with ice-chilled assay buffer. The filter was taken out and put into a 3 ml scintillation vial, and 2 ml of toluene scintillation cocktail was added and blended.
# (6) The scintillation vials were put into Liquid Scintillation Counter for counting. Inhibition rate(I%)=(Total binding tube cpm−compound cpm)/(Total binding tube cpm−nonspecific binding tube cpm)×100%
# Each assay for the compounds was conducted in duplicate for two individual tests.
# 5-HT2A = 5-HT2A (Rattus norvegicus (Rat), UniProt P14842); assay: 5-HT2A receptor binding assay ([3H]-Ketanserin)
# Sequence of 5-HT2A (P14842 whole entry): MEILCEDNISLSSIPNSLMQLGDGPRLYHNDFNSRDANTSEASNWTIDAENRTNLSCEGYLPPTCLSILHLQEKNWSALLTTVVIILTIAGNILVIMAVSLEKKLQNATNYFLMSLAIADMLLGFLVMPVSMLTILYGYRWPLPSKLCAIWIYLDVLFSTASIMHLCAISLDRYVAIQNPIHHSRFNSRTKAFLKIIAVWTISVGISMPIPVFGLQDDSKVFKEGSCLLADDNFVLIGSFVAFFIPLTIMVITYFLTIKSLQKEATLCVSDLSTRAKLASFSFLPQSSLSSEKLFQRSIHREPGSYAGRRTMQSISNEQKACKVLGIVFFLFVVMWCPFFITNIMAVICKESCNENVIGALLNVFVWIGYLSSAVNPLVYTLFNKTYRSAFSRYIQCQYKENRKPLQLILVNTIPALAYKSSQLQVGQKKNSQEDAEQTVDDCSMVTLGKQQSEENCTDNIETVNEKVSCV
# Procedure: Rats were decapitated. Cortex of brain was rapidly taken on ice, and 3 ml of buffer (0.05 M Tris-HCl buffer: 6.05 g of Tris was dissolved in 1000 ml of double-distilled water, and concentrated HCl was used to adjust to pH 7.5) was added, homogenization was conducted, and then 5 ml of buffer was added. Incubation was conducted at 37° C. for 10 min, the weight of the tubes were adjusted using a balance after incubation. Centrifugation was conducted at 12000 rpm, 4° C. for 20 min, the supernatant was discarded, and 3 ml of buffer was added. Vortex mixer was used for blending, and then 5 ml of buffer was added. Centrifugation was conducted (repeated 3 times). After the centrifugation, the supernatant was discarded, and the pellets were stored at −80° C. for future use.
# (1) The prepared membrane was applied with buffer, and homogenizer was used for evenly dispersing. 15 tubes were mixed into a 100 ml container, and appropriate amount of buffer was added to give 50 ml of membrane suspension, which was reserved for future use.
# as §2
# (3) 100 μL of buffer was added into the total binding tube (TB), 100 μL of Methysergide (final concentration 10^−5M) was added into the nonspecific binding tube (NB), 100 μL of the test compound (final concentration 10^−5M) was added into the specific binding tube (SB) of each test compound.
# (5) Each of the reaction tubes was incubated at 37° C. for 15 min. After the reaction was completed, the bound ligands were rapidly filtered under reduced pressure, and sufficiently washed with ice-chilled assay buffer. The filter was taken out and put into a 3 ml scintillation vial, and 2 ml of toluene scintillation cocktail was added and blended.
# (6) The scintillation vial were put into Liquid Scintillation Counter for counting. Inhibition rate(I%)=(Total binding tube cpm−compound cpm)/(Total binding tube cpm−nonspecific binding tube cpm)×100%
# 5-HT7 receptor = 5-HT7 receptor (Rattus norvegicus (Rat), UniProt P32305); assay: 5-HT7 receptor binding assay ([3H]-5-CT); conditions: rat hypothalamus membrane, [3H]-5-CT
# Sequence of 5-HT7 receptor (P32305 whole entry): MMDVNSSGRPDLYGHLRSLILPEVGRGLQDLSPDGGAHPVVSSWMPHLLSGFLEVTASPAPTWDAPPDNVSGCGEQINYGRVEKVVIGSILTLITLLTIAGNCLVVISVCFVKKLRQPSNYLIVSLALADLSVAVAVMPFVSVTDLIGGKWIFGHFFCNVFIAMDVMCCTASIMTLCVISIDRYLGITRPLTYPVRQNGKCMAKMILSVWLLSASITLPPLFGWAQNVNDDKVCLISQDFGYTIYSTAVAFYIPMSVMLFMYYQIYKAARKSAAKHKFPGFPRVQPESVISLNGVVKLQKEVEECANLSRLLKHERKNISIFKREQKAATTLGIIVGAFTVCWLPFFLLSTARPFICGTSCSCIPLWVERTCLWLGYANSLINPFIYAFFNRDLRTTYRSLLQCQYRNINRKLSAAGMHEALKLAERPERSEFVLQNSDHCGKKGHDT
# Procedure: Adult SD rats were decapitated. […] Centrifugation was conducted (repeated 3 times).
# as §1
# Histamine H1 receptor = Histamine H1 receptor (Cavia porcellus (Guinea pig), UniProt P31389); assay: Histamine H1 receptor binding assay (3H-pyrilamine); conditions: guinea pig cerebellum membrane, 3H-pyrilamine
# Sequence of Histamine H1 receptor (P31389 whole entry): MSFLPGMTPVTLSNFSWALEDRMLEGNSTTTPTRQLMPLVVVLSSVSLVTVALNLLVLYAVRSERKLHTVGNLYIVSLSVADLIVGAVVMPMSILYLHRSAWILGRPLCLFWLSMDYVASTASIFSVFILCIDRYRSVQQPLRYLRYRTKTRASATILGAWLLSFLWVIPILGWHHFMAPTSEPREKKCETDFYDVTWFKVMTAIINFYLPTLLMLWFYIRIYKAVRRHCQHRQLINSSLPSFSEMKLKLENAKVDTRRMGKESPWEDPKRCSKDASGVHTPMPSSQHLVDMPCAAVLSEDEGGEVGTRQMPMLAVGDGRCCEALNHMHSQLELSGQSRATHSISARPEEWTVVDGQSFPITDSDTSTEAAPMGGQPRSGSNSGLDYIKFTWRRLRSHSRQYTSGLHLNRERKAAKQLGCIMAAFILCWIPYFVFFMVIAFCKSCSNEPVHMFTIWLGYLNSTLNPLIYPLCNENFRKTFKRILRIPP
# Procedure: Preparation of Histamine H1 Receptor Membrane
# Guinea pigs were decapitated. […] Vortex mixer was used for blending. Centrifugation was conducted at 48000 g, 4° C. for 10 min. The supernatant was discarded to give pellets, and buffer was added again for washing. Centrifugation was conducted and repeated 3 times.
# as §1
# (2) 100 μL of membrane preparation was added into each reaction tube.
# [1] = read-out: Ki (nM) D2, rat striatum membrane, 3H-Spiperone
# [2] = read-out: Ki (nM) 5-HT2A, rat cortex membrane, [3H]-Ketanserin
# Sequence of 5-HT1A (P19327 whole entry): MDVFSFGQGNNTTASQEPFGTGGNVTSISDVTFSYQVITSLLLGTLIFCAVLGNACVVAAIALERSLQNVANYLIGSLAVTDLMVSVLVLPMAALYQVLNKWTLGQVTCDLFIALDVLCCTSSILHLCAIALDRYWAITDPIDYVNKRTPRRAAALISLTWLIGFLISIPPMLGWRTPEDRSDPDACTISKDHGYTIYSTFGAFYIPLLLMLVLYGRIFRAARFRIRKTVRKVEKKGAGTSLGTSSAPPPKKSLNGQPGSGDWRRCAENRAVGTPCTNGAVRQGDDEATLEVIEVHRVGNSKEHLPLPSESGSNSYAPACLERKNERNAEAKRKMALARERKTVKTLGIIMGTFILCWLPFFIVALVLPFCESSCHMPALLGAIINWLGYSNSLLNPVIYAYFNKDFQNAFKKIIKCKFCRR
Compound,Ki (5-HT1A),Ki (D2; [1]),Ki (5-HT2A; [2]),Ki (5-HT7 receptor),Ki (Histamine H1 receptor),Ki (D2),Ki (5-HT2A)
"COc1ccc(N2CCN(CCCOc3ccc4c(c3)C(=O)N(C)CC4)CC2)cc1 [Compound 21, 7-(3-(4-(4-methoxyphenyl)piperazin-1-yl)propoxy)-2-methyl-3,4-dihydroisoquinolin-1(2H)-one]",> 2000 nM,> 2000 nM,> 2000 nM,,,,
"CN1COc2ccc(OCCCN3CCC(c4noc5cc(F)ccc45)CC3)cc2C1=O [Compound 11, 6-(3-(4-(6-fluorobenzo[d]isoxazol-3-yl)piperidin-1-yl)propoxy)-3-methyl-2H-benzo[e][1,3]oxazin-4(3H)-one]",24.6 nM,13.9 nM,3.6 nM,11.2 nM,> 2000 nM,,
"CN1CCc2ccc(OCCCN3CCN(c4ccc5c(c4)OCO5)CC3)cc2C1=O [Compound 13, 7-(3-(4-(benzo[d][1,3]dioxol-5-yl)piperazin-1-yl)propoxy)-2-methyl-3,4-dihydroisoquinolin-1 (2H)-one]",12.8 nM,235 nM,3.6 nM,,,,
"Cn1c(=O)c2cc(OCCCN3CCN(c4cccc5sccc45)CC3)ccc2n(C)c1=O [D, reference compound]",,25.5 nM,,606 nM,154 nM,,
"CN1CCc2ccc(OCCCN3CCN(c4ccccn4)CC3)cc2C1=O [Compound 23, 2-methyl-7-(3-(4-(pyridin-2-yl)piperazin-1-yl)propoxy)-3,4-dihydroisoquinolin-1(2H)-one]",> 2000 nM,> 2000 nM,369 nM,,,,
"Cn1cnc2ccc(OCCCCN3CCN(c4cccc(C(F)(F)F)c4)CC3)cc2c1=O [Compound 28, 3-methyl-6-(4-(4-(3-(trifluoromethyl)phenyl)piperazin-1-yl)butoxy)quinazolin-4(3H)-one]",12.2 nM,24.8 nM,5.8 nM,7.4 nM,> 2000 nM,,
"Cn1cnc2ccc(OCCCCN3CCN(Cc4ccccc4)CC3)cc2c1=O [Compound 26, 6-(4-(4-benzylpiperazin-1-yl)butoxy)-3-methylquinazolin-4(3H)-one]",56.9 nM,> 2000 nM,> 2000 nM,,,,
"CN1CCc2ccc(OCCCN3CCC(C(=O)c4ccc(F)cc4)CC3)cc2C1=O [Compound 25, 7-(3-(4-(4-fluorobenzoyl)piperidin-1-yl)propoxy)-2-methyl-3,4-dihydroisoquinolin-1(2H)-one]",17.6 nM,32.8 nM,21.7 nM,10.8 nM,> 2000 nM,,
"Cn1cnc2ccc(OCCCCN3CCc4ccccc4C3)cc2c1=O [Compound 27, 6-(4-(3,4-dihydroisoquinolin-2(1H)-yl)butoxy)-3-methylquinazolin-4(3H)-one]",57.9 nM,500 nM,66.2 nM,,,,
"O=C1NCCc2ccc(OCCCN3CCN(c4cccc(Cl)c4Cl)CC3)cc21 [A, reference compound]",14.3 nM,21.2 nM,29.2 nM,254 nM,89.6 nM,,
"CCN1CCc2ccc(OCCCN3CCC(c4noc5cc(F)ccc45)CC3)cc2C1=O [Compound 7, 7-(3-(4-(6-fluorobenzo[d]isoxazol-3-yl)piperidin-1-yl)propoxy)-2-ethyl-3,4-dihydroisoquinolin-1(2H)-one]",1.9 nM,13.1 nM,0.9 nM,12.7 nM,> 2000 nM,,
"CN1CCc2c(F)cc(OCCCN3CCC(c4noc5cc(F)ccc45)CC3)cc2C1=O [Compound 9, 5-fluoro-7-(3-(4-(6-fluorobenzo[d]isoxazol-3-yl)piperidin-1-yl)propoxy)-2-methyl-3,4-dihydroisoquinolin-1(2H)-one]",3.9 nM,3.1 nM,3.7 nM,7.9 nM,> 2000 nM,,
"Cn1cnc2ccc(OCCCCN3CCN(c4ccc(F)cc4)CC3)cc2c1=O [Compound 29, 6-(4-(4-(4-fluorophenyl)piperazin-1-yl)butoxy)-3-methylquinazolin-4(3H)-one]",259 nM,> 2000 nM,347 nM,,,,
"COc1ccccc1N1CCN(CCCCOc2ccc3c(c2)C(=O)N(C)CC3)CC1 [Compound 2, 7-(4-(4-(2-methoxyphenyl)piperazin-1-yl)butoxy)-2-methyl-3,4-dihydroisoquinolin-1(2H)-one]",11.3 nM,120 nM,36.8 nM,,,,
"CN1CCc2ccc(OCCCN3CCN(c4ccccc4Cl)CC3)cc2C1=O [Compound 18, 7-(3-(4-(2-chlorophenyl)piperazin-1-yl)propoxy)-2-methyl-3,4-dihydroisoquinolin-1(2H)-one]",> 2000 nM,> 2000 nM,> 2000 nM,,,,
"CN1CCc2ccc(OCCCN3CCN(c4cccc5ccccc45)CC3)cc2C1=O [Compound 6, 2-methyl-7-(3-(4-(naphthalen-1-yl)piperazin-1-yl)propoxy)-3,4-dihydroisoquinolin-1(2H)-one]",46.6 nM,134 nM,57 nM,,,,
"CN1CCc2ccc(OCCCN3CCN(c4ccc5ccccc5n4)CC3)cc2C1=O [Compound 15, 7-(3-(4-(quinolin-2-yl)piperazin-1-yl)propoxy)-2-methyl-3,4-dihydroisoquinolin-1(2H)-one]",157 nM,1990 nM,468 nM,,,,
"CN1CCc2ccc(OCCCN3CCN(c4ccc(Cl)cc4)CC3)cc2C1=O [Compound 17, 7-(3-(4-(4-chlorophenyl)piperazin-1-yl)propoxy)-2-methyl-3,4-dihydroisoquinolin-1(2H)-one]",> 2000 nM,> 2000 nM,> 2000 nM,,,,
"Cn1cnc2ccc(OCCCCN3CCN(c4ccccn4)CC3)cc2c1=O [Compound 30, 3-methyl-6-(4-(4-(pyridin-2-yl)piperazin-1-yl)butoxy)quinazolin-4(3H)-one]",> 2000 nM,,,,,> 2000 nM,> 2000 nM
"CN1CCc2ccc(OCCCN3CCN(c4ccccc4)CC3)cc2C1=O [Compound 16, 2-methyl-7-(3-(4-phenylpiperazin-1-yl)propoxy)-3,4-dihydroisoquinolin-1(2H)-one]",569 nM,> 2000 nM,372 nM,,,,
"CN1CCc2ccc(OCCCCN3CCC(c4noc5cc(F)ccc45)CC3)cc2C1=O [Compound 1, 7-(4-(4-(6-fluorobenzo[d]isoxazol-3-yl)piperidin-1-yl)butoxy)-2-methyl-3,4-dihydroisoquinolin-1(2H)-one]",15.8 nM,12.5 nM,18.9 nM,12.5 nM,,,
"CN1CCc2ccc(OCCCN3CCN(c4ccc(F)cc4)CC3)cc2C1=O [Compound 19, 7-(3-(4-(4-fluorophenyl)piperazin-1-yl)propoxy)-2-methyl-3,4-dihydroisoquinolin-1(2H)-one]",746 nM,1650 nM,688 nM,,,,
"CN1CCc2ccc(OCCCCN3CCN(c4cccc(C(F)(F)F)c4)CC3)cc2C1=O [Compound 3, 2-methyl-7-(4-(4-(3-(trifluoromethyl)phenyl)piperazin-1-yl)butoxy)-3,4-dihydroisoquinolin-1 (2H)-one]",11.8 nM,17.2 nM,9.9 nM,23.6 nM,,,
"CN1CCc2ccc(OCCCN3CCN(c4cccc5sccc45)CC3)cc2C1=O [B, reference compound]",,,,579 nM,139 nM,,
"O=C1NCCc2ccc(OCCCN3CCN(c4ccc5sccc5c4)CC3)cc21 [C, reference compound]",,,,500 nM,138 nM,35.2 nM,
